We go through 1 substance from patent publication US20080279856A1, “Inhibition of Bradykinin Release” (Novo Nordisk Pharmaceuticals, Inc., priority 1999, published 2008).

Changes are numbered by the printed parent chain.

One may read the Kd as the constant that tells how readily two partners part at equilibrium.

One assay concerns endothelial cell. As to conditions: hypoxic cold storage in organ preservation solutions; cited from earlier work.
Assay [1] deals with kallikrein-C1-inhibitor and C1-C1-inhibitor complexes. As to conditions: cited from earlier work.
For the next assay, the target named is T1, HBP mutant (G175N) (Homo sapiens, UniProt P20160, G201N).
T1 sequence (P20160 27-248 G201N): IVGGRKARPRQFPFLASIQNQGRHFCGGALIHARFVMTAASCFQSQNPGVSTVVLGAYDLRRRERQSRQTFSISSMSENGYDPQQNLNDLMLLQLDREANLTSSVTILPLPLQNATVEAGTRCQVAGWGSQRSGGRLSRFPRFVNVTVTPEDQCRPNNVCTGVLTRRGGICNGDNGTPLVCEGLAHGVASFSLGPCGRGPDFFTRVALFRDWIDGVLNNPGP
The assay is described as follows: Aprotinin effect on leakage induced by HBP mutant (G175N). The class given is cell-based. To be noted: leakage model.

In assay [2] the test system is HBP-induced increase in EC permeability. Description: Inhibition of HBP-induced increase in EC permeability. The class given is cell-based, human, bovine. As to conditions: aprotinin 100 μg/ml, 30 min pre-incubation; HBP 75 μg/ml; N=6. The text has this:
Alternatively, HBP antagonists may be detected by culturing endothelial cells in the presence of HBP and in the presence and absence of a substance suspected of being an antagonist. In a specific embodiment, the antagonist is a monoclonal antibody that binds to at least one epitope of HBP, preferably human HBP, wherein said epitope binds to prekallikrein-H-kininogen complex and activates release of bradykinin. In a preferred embodiment, the monoclonal antibody is a human monoclonal antibody. In one embodiment, the antibody and HBP are preincubated together before incubating with endothelial cells for about 10 minutes at 37° C. The effect of the substance on the permeability of endothelial cells is determined by measuring transendothelial electrical resistance or determining albumin clearance as described in the Examples, infra. A decrease in permeability would indicate that the substance does act as an HBP antagonist.
For measurement of electrical resistance across the EC monolayer, the filter insert is transferred to a resistance measurement chamber (ENDOHM-12; World Precision Instruments, Sarasota, Fla., USA) modified so as to assure exact positioning of the electrodes in relation to each other and to the filter insert during repeated measurements. The chamber (lower compartment) and the filter insert (upper compartment) are filled with 2 ml and 400 μl culture medium, respectively. […] Direct readings of the electrical resistance are given by an ohmmeter (EVOM; World Precision Instruments, Sarasota, Fla., USA) connected to the electrodes of the resistance chamber. The electrical resistance of individual EC monolayers is obtained by subtracting the resistance of the corresponding naked filter coated with Biomatrix as measured prior to seeding of the endothelial cells.
Evans blue dye-conjugated albumin (EBA) is used as a marker for macromolecular permeability of the EC monolayers. […] In experiments where albumin permeability is analyzed, the culture medium in the upper compartment is exchanged for medium containing EBA. […]

The next assay concerns vascular permeability. As to conditions: cited from earlier work.
The subject of assay [3] is bradykinin-induced increase in EC permeability. Description: Inhibition of bradykinin-induced increase in EC permeability. As to conditions: aprotinin 100 μg/ml; subsequent bradykinin 100 nM. The class given is cell-based, human, bovine. As to the method: For measurement of electrical resistance across the EC monolayer, the filter insert is transferred to a resistance measurement chamber (ENDOHM-12; World Precision Instruments, Sarasota, Fla., USA) modified so as to assure exact positioning of the electrodes in relation to each other and to the filter insert during repeated measurements. The chamber (lower compartment) and the filter insert (upper compartment) are filled with 2 ml and 400 μl culture medium, respectively. All measurements are made at 37° C. with the equipment placed in a cell culture incubator. Direct readings of the electrical resistance are given by an ohmmeter (EVOM; World Precision Instruments, Sarasota, Fla., USA) connected to the electrodes of the resistance chamber. The electrical resistance of individual EC monolayers is obtained by subtracting the resistance of the corresponding naked filter coated with Biomatrix as measured prior to seeding of the endothelial cells.
Before transferring the filter inserts to the resistance measurement chamber (kept at 37° C.), the medium in the insert and in the chamber is replaced with fresh culture medium (37° C.) supplemented with 10 mM Hepes. HBP (25-100 μg/ml) or PMN secretion product is added either to the upper or the lower compartment and change in transendothelial electrical resistance is measured every minute until a plateau phase is reached, and thereafter at 5-min intervals. In separate experiments, PMNs (2×10^6) preincubated with mAb IB4 (10 μg/ml) are added to the upper compartment (PMN:EC ratio=10:1) and allowed to sediment for 10 min. Activation of the PMNs is induced through antibody crosslinking of leukocytic CD18 by addition of goat anti-mouse IgG F(ab′)2 diluted 1:20. In experiments where albumin permeability across the EC monolayer is studied, the medium in the insert contained EBA. During the experiment, the filter insert is moved at 5-10 min intervals to new wells containing fresh medium. All incubations are made at 37° C. After the experiment, the medium in the lower wells is aspirated and analyzed for EBA content.

For assay [4] the following is noted: after cardiac operations; cited from earlier work.
Another assay has as its target T2, HBP (Homo sapiens, UniProt P20160).
T2 sequence (P20160 27-248): T1 sequence (P20160 27-248 G201N) with N175G
To be noted: cited from earlier work.

Assay [5] is described as follows: 3H-LPS binding to HBP, scintillation proximity assay. To be noted: up to 50 mM unlabeled BPTI. On the procedure: The affinity for lipopolysaccharide (3H-LPS) is measured by scintillation proximity assay technology (SPA) as described (Linde, V., Bjørn, S., Kastrup, J. S., and Flodgaard, H., 2000, Biotechniques 28:218-222). All samples are repeated in triplicates.

Take aprotinin: the endothelial cell viability entry with endothelial cell is “increases endothelial cell viability”. For the same substance, the “kallikrein-C1-inhibitor and C1-C1-inhibitor complexes” value in assay [1] is given as “decrease”. Also, at HBP mutant (G175N), the “effect of aprotinin on mutant-induced leakage” value is given as “no inhibitory effect”. In assay [2], the “effect on HBP-induced increase in EC permeability” value was “largely prevented”. Besides, the “vascular permeability and neutrophil count” value with vascular permeability was “decreased this vascular permeability and neutrophil count”. For the same substance, the “effect on bradykinin-induced permeability change” value in [3] is on record as “but not the permeability change induced by subsequent administration of bradykinin”. For the same substance, in assay [4], the blood loss entry is “reduces blood loss” and the postoperative bleeding time result is “decreases the elevated postoperative bleeding time”. In addition, on HBP, the Kd was 100 nM. Besides, the “competition for 3H-LPS binding to native HBP” value in assay [5] is “no inhibitory effects”.
